Measured values from US20100068812A1, “METHOD FOR INCREASING TRANSFORMATION EFFICIENCY IN PLANTS, COMPRISING COCULTURE STEP FOR CULTURING PLANT TISSUE WITH COCULTURE MEDIUM CONTAINING 3, 6-DICHLORO-O-ANISIC ACID” (Japan Tobacco Inc., priority 2007, published 2010).

Tests used:
[1] = system: Maize (variety: A188) immature embryos; test: Effect of auxin type in coculture medium on Agrobacterium-mediated transformation efficiency (GUS-positive plants / inoculated immature embryos); type: cell-based; details: for transformation efficiency / transformation efficiency relative to control (2,4-D), in words: auxin 1.5 mg/l in coculture medium, Agrobacterium LBA4404 (pSB131); for transformation efficiency: coculture in the dark at 25° C. for 7 days, 33 to 35 immature embryos per test
Excerpt: (§1) Transformation efficiency can be determined by any calculation method commonly used by those skilled in the art, for example, can be determined from a value calculated by dividing the number of transformed plants by the number of Agrobacterium-inoculated explants.
(§2) FIG. 1 is a graph showing the effect of auxin type in a coculture medium on transformation efficiency in maize. 33 to 35 immature embryos were provided for each test. The vertical axis represents the transformation efficiency (calculated by dividing the number of GUS-positive plants obtained in each test by the number of inoculated immature embryos), while the horizontal axis represents the type of auxin contained in the coculture medium. The auxin concentration in the coculture medium was set to 1.5 mg/l for each test.
Maize (variety: A188) immature embryos (1.0 to 1.5 mm in size) at 7 to 14 days after pollination were aseptically collected and washed once with LS-inf liquid medium (Non-patent Publication No. 11), followed by pretreatment (thermal treatment at 46° C. for 3 minutes and centrifugation at 15,000 rpm for 10 minutes) to increase gene transfer efficiency. In LS-inf liquid medium containing 100 μM acetosyringone, Agrobacterium strain LBA4404 (pSB131) (Non-patent Publication No. 11) was suspended at about 1.0×10^9 cfu/ml to prepare an inoculum. The thermally-treated and centrifuged immature embryos were mixed with the inoculum, vortexed for 30 seconds, and then allowed to stand for 5 minutes at room temperature. The Agrobacterium-inoculated immature embryos were placed, with their embryonic discs facing up, onto a coculture medium containing 2,4,5-T (2,4,5-trichlorophenoxyacetic acid), picloram (4-amino-3,5,6-trichloropicolinic acid), TIBA (2,3,5-triiodobenzoic acid) or dicamba at a concentration of 1.5 mg/l in IS-AS medium (Non-patent Publication No. 11; solidified with 8 g/l agarose) which had been prepared to exclude 2,4-D and contain 5 μM AgNO3 and 5 μM CuSO4. A control medium was prepared to contain 5 μM AgNO3 and 5 μM CuSO4 in LS-AS medium (solidified with 8 g/l agarose).
The immature embryos cultured in the dark at 25° C. for 7 days were placed onto LSD1.5 medium (Non-patent Publication No. 11) containing 5 μM AgNO3, 5 mg/l phosphinothricin (PPT), 250 mg/l carbenicillin and 100 mg/l cefotaxime, and then cultured in the dark at 25° C. for 10 days. The immature embryos were transferred to the same medium, except that the PPT concentration was set to 10 mg/l, and cultured under the same conditions for 3 weeks. The grown calli were excised with a surgical knife, placed onto a fresh medium of the same composition, and cultured under the same conditions for 3 weeks. The grown calli were excised, placed onto LSZ medium (Non-patent Publication No. 11) containing 10 μM CuSO4 and 5 mg/l PPT, and cultured in the light at 25° C. for about 2 weeks. Along with determining the number of immature embryos which regenerated into whole plants, leaves of the regenerated plants were partially excised, immersed in 0.1 M phosphate buffer (pH 6.8) containing 0.1% Triton X-100 and allowed to stand at 37° C. for 1 hour. The phosphate buffer was removed and then replaced with another phosphate buffer containing 1.0 mM 5-bromo-4-chloro-3-indolyl-β-D-glucuronic acid (X-gluc) and 20% methanol. After incubation at 37° C. for 24 hours, GUS gene expression was examined.

[2] = system: immature embryos (variety: A188); test: Effect of dicamba and 2,4-D in coculture medium on transformation efficiency (drop inoculation); type: cell-based, Maize; details: for transformation efficiency: auxin 1.5 mg/l in coculture medium, Agrobacterium LBA4404 (U0009B) with hydroxyapatite, 25 to 26 immature embryos per test
Excerpt: as §1
as §2, with “FIG. 3” for “FIG. 1”, “in maize (drop inoculation). 25” for “in maize. 33”, “to 26” for “to 35”
The vector U0009B shown in FIG. 2 and SEQ ID NO: 1 was constructed by adding necessary elements to a vector having pSB11 (Non-patent Publication No. 27) as a skeletal structure. An inoculum (1 ml) of Agrobacterium strain LBA4404 (U0009B) prepared in the same manner as shown in Example 1 was supplemented with about 80 mg of hydroxyapatite (Bio-Rad). […] A control medium was prepared to contain 5 μM AgNO3 and 5 μM CuSO4 in LS-AS medium (solidified with 8 g/l agarose). After shaking with a vortex mixer to ensure a uniformly dispersed state of hydroxyapatite in the inoculum, 5 μl of the inoculum was added dropwise onto the immature embryos. After the inoculum added dropwise was dried, the immature embryos were transferred to another site on the same medium. After the culture container was sealed, coculture was performed in the dark at 25° C. for 7 days. The cocultured immature embryos were cultured in the same manner as shown in Example 1 to obtain regenerated plants, along with examining GUS gene expression in leaves of the regenerated plants.

maize immature embryos = details: 15 μM dicamba vs 4.5 μM 2,4-D; cited from earlier work
maize = details: 15 μM dicamba vs 6.75 μM 2,4-D; media also differ in other components (silver nitrate); cited from earlier work

| SMILES | transformation efficiency [1] | transformation efficiency [2] | transformation efficiency relative to control (2,4-D), in words [1] | other results |
| --- | --- | --- | --- | --- |
| O=C(O)COc1ccc(Cl)cc1Cl [2,4-D, 2,4-dichlorophenoxyacetic acid] | 20.6% | 11.5% | – | – |
| Nc1c(Cl)c(Cl)nc(C(=O)O)c1Cl [picloram, 4-amino-3,5,6-trichloropicolinic acid] | – | – | lower than that of the control | – |
| COc1c(Cl)ccc(Cl)c1C(=O)O [dicamba, 3,6-dichloro-o-anisic acid] | 27.3% | 28.0% | – | formation rate of calli having regeneration ability, compared to 2,4-D (maize immature embryos): increased; increase in the transformation efficiency compared to the conventional method using 2,4-D ([1]; dicamba 1.5 mg/l in coculture medium, 27.3/20.6): 1.33 fold; transformation efficiency, dicamba medium vs 2,4-D medium (maize): higher; increase in the transformation efficiency compared to the conventional method using 2,4-D ([2]; dicamba 1.5 mg/l, 28.0/11.5): 2.43 fold |
| O=C(O)COc1cc(Cl)c(Cl)cc1Cl [2,4,5-T, 2,4,5-trichlorophenoxyacetic acid] | – | – | lower than that of the control | – |
| O=C(O)c1cc(I)cc(I)c1I [TIBA, 2,3,5-triiodobenzoic acid] | – | – | produced no transformed plant | – |
